Experimental data published in PMC8194506 (Antiviral research, 2020).

Details: guinea pig, in vivo

CCN(CC)CCOc1ccc2c(c1)C(=O)c1cc(OCCN(CC)CC)ccc1-2 [Tilorone]
well tolerated dose: ≤ 60 mg/kg
